Assay results taken from patent US10465227B2, “Microbial testing devices, methods of making microbial testing devices and methods of identifying novel antimicrobial drug candidates” (BOARD OF REGENTS, THE UNIVERSITY OF TEXAS SYSTEM, priority 2010, dated 2019).

System: C. albicans biofilms
Assay: Susceptibility testing of preformed C. albicans biofilms in CaBChip (FUN 1 fluorescence)
Assay type: cell-based, Candida albicans strain SC5314
Settings: 24 h preformed biofilms on CaBChip, 24 h drug exposure; for SMIC50 / SMIC80: FUN 1 staining
Experimental: A four-factor, two-level factorial design was performed using MINITAB (Minitab Solutions Inc., State College, Pa.) and DESIGN EXPERT (Stat-Ease Inc., Minneapolis, Minn.) software to obtain optimal conditions of media concentration, seeding density, collagen concentration and PSMA coating concentration for wash-resistant biofilm growth on the CaBChip. The response (output) metrics were true biofilm yield and robust attachment, measured using microarray scanner and light microscope. For preparation of inocula for printing and biofilm formation in the CaBChip, cells harvested from overnight YPD cultures were washed twice in sterile phosphate buffered saline (PBS; 10 mM phosphate buffer, 2.7 mM potassium chloride, 137 mM sodium chloride (pH 7.4) (Sigma) by centrifugation at 3000 g. The cells were then resuspended in Reconstruction buffer (0.2N NaOH solution with 2.2% (wt/vol) Sodium Bicarbonate and 4.8% (wt/vol) HEPES). One hundred fold dilutions of the suspended cells were prepared and counted using a hemocytometer on a bright field microscope. Following count, a suspension of cells was prepared in reconstruction buffer at a cell density of 5×10^7 cells/mL, which was diluted ten times by addition of 10×RPMI-1640 supplemented with L-glutamine and buffered with morpholinepropanesulfonic acid (Angus Buffers and Chemicals, Niagara Falls, N.Y.) containing collagen (1.8 mg/ml) (Type 1 from rat tail, BD Biosciences, Bedford, Mass.), to give a final concentration of cells of […]. The suspension containing yeast cells, collagen and media was printed (50 nL per spot) on the functionalized PSMA-coated glass slides using a microarray spotter (Omnigrid Micro, Digilab Inc., Holliston, Mass.). Printing was carried out by non-contact deposition using conically tapered 190μ orifice ceramic tips (Digilab). The resulting spots were approximately 700μ in diameter, spaced 1.2 mm apart; spots were printed in an array of 48 rows and 16 columns. In a standard print nm, the tips were primed, rinsed in running water and vacuum dried twice after each loading and printing step. The cell suspension was kept on ice to prevent the gelation of collagen before printing and agitated gently just prior to placement on the printing robot to ensure a uniformly mixed cell suspension. A relative humidity of 97% was maintained during printing to prevent the drying of the biofilm spots. All microarray operations such as aspiration, dispensing, priming, printing and spatial distribution of array were controlled by AxSys program (Digilab). All surfaces, including the source plate station, wash and vacuum station, vacuum slide platter and printing chamber were sterilized by wiping with 70% isopropanol. In our experience, these procedures ensure that there is no detectable contamination of wells in the plates or of spots on the microarray. After printing, the slides were placed inside humidifier chambers (Arraylt Corporation, Sunnyvale, Calif.), which were placed inside a 37 C incubator over different periods of time to allow for biofilm formation.
FUN 1 [2-chloro-4-(2,3-dihydro-3-methyl-(benzo-1,3-thiazol-2-yl)-methylidene)-1-phenylquinolinium iodide] (Invitrogen Corp., Carlsbad, Calif.) was used to stain and determine viability (levels of metabolic activity) of C. albicans cells within the biofilms formed in the chips. This membrane-permeable fluorescent dye is internalized and processed by metabolically active fungal cells, and has excitation and emission spectra that are compatible with the sets of lasers and filters installed in most microarray scanners. Briefly, the CaBChip was stained with 0.5 tM FUN 1, by simply dunking the entire CaBChip in a staining jar, and incubated in the dark at 37° C. for 30 min. Following incubation, the chip was washed three times by dunking in PBS in order to remove excess stain. The slides were then air-dried and scanned in a microarray scanner (Genepix Personal4100A, Axon Instruments, Union City, Calif.). […]

| SMILES | susceptibility of biofilms formed on CaBChip (in words) | calculated IC50 (FUN 1 fluorescence, Hill equation fit) | SMIC50 | SMIC80 | IC50 (Candida albicans, FUN 1 fluorescence, Hill equation fit, read-out: calculated IC50) |
| --- | --- | --- | --- | --- | --- |
| C[C@@H]1[C@H](O)[C@@H](C)/C=C/C=C/C=C/C=C/C=C/C=C/C=C/[C@H](O[C@@H]2O[C@H](C)[C@@H](O)[C@H](N)[C@@H]2O)C[C@@H]2O[C@](O)(C[C@@H](O)C[C@@H](O)[C@H](O)CC[C@@H](O)C[C@@H](O)CC(=O)O[C@H]1C)C[C@H](O)[C@H]2C(=O)O [amphotericin B] | effective against biofilms formed on CaBChip, but only at relatively high concentrations | 0.27 ± 0.04 µg/mL | 0.5 µg/mL | 1 µg/mL | – |
| OC(Cn1cncn1)(Cn1cncn1)c1ccc(F)cc1F [fluconazole] | intrinsically resistant to fluconazole | – | > 1,024 μg/ml | > 1,024 μg/ml | > 1020 µg/mL |
